{
  "source": "PubChem BioAssay AID2060901",
  "about": "(Molecular Pharmacology Branch, DTP, NCI, 2025);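 further: spheroids exposed to compounds for 7 days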;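 on viability, T/C: 100% = DMSO vehicle control viability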",
  "system": "422866-222-R5-J1-PDC complex spheroids viability",
  "assay": "Anticancer human tumor 422866-222-R5-J1-PDC patient-derived pancreatic adenocarcinoma cell line growth inhibition [RAS]",
  "details": "for IC50: curve of first compound; for viability, T/C: stronger effect = lower value",
  "outline": "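Agents were tested in combination matrices in half-log decrements from a top concentration at or near clinical Cmax (10 microM if undetermined). Targets were multi-cell spheroids of tumour lines plus HUVEC and MSC stromal cells.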",
  "key": {"[1]": {"details": "second compound 0.000949 µM, first compound 0.0316 µM"}, "[2]": {"details": "second compound 0.000949 µM, first compound 0.1 µM"}, "[3]": {"details": "second compound 0.000949 µM, first compound 0.316 µM"}, "[4]": {"details": "second compound 0.000949 µM, first compound 1 µM"}, "[5]": {"details": "second compound 0.000949 µM, first compound 3.16 µM"}, "[6]": {"details": "second compound 0.000949 µM, first compound 10 µM"}, "[7]": {"details": "second compound 0.003 µM, first compound 0.0316 µM"}, "[8]": {"details": "second compound 0.003 µM, first compound 0.1 µM"}, "[9]": {"details": "second compound 0.003 µM, first compound 0.316 µM"}, "[10]": {"details": "second compound 0.003 µM, first compound 1 µM"}, "[11]": {"details": "second compound 0.003 µM, first compound 3.16 µM"}, "[12]": {"details": "second compound 0.003 µM, first compound 10 µM"}, "[13]": {"details": "second compound 0.00949 µM, first compound 0.0316 µM"}, "[14]": {"details": "second compound 0.00949 µM, first compound 0.1 µM"}, "[15]": {"details": "second compound 0.00949 µM, first compound 0.316 µM"}, "[16]": {"details": "second compound 0.00949 µM, first compound 1 µM"}, "[17]": {"details": "second compound 0.00949 µM, first compound 3.16 µM"}, "[18]": {"details": "second compound 0.00949 µM, first compound 10 µM"}, "[19]": {"details": "second compound 0.03 µM, first compound 0.0316 µM"}, "[20]": {"details": "second compound 0.03 µM, first compound 0.1 µM"}, "[21]": {"details": "second compound 0.03 µM, first compound 0.316 µM"}, "[22]": {"details": "second compound 0.03 µM, first compound 1 µM"}, "[23]": {"details": "second compound 0.03 µM, first compound 3.16 µM"}, "[24]": {"details": "second compound 0.03 µM, first compound 10 µM"}, "[25]": {"details": "second compound 0.0949 µM, first compound 0.0316 µM"}, "[26]": {"details": "second compound 0.0949 µM, first compound 0.1 µM"}, "[27]": {"details": "second compound 0.0949 µM, first compound 0.316 µM"}, "[28]": {"details": "second compound 0.0949 µM, first compound 1 µM"}, "[29]": {"details": "second compound 0.0949 µM, first compound 3.16 µM"}, "[30]": {"details": "second compound 0.0949 µM, first compound 10 µM"}, "[31]": {"details": "second compound 0.3 µM, first compound 0.0316 µM"}, "[32]": {"details": "second compound 0.3 µM, first compound 0.1 µM"}, "[33]": {"details": "second compound 0.3 µM, first compound 0.316 µM"}, "[34]": {"details": "second compound 0.3 µM, first compound 1 µM"}, "[35]": {"details": "second compound 0.3 µM, first compound 3.16 µM"}, "[36]": {"details": "second compound 0.3 µM, first compound 10 µM"}},
  "data": [
    {"smiles": "C[C@@H](NC(=O)c1ncnc(N)c1Cl)c1ncc(C(=O)Nc2cc(C(F)(F)F)c(Cl)cn2)s1", "note": "+ CCn1c(-c2cc(N3CCN(C)CC3)cnc2C(C)OC)c2c3cc(ccc31)-c1csc(n1)CC(NC(=O)C1CC1C)C(=O)N1CCCC(N1)C(=O)OCC(C)(C)C2", "values": [
      {"measurement": "IC50", "setting": "second compound 0.000949 µM", "value": "< 31.6", "unit": "nM"},
      {"measurement": "IC50", "setting": "second compound 0.003 µM", "value": "< 31.6", "unit": "nM"},
      {"measurement": "IC50", "setting": "second compound 0.00949 µM", "value": "< 31.6", "unit": "nM"},
      {"measurement": "IC50", "setting": "second compound 0.03 µM", "value": "< 31.6", "unit": "nM"},
      {"measurement": "IC50", "setting": "second compound 0.0949 µM", "value": "< 31.6", "unit": "nM"},
      {"measurement": "IC50", "setting": "second compound 0.3 µM", "value": "< 31.6", "unit": "nM"},
      {"measurement": "viability, T/C", "setting": "[1]", "value": 33.8, "unit": "%"},
      {"measurement": "viability, T/C", "setting": "[2]", "value": 40.3, "unit": "%"},
      {"measurement": "viability, T/C", "setting": "[3]", "value": 33.5, "unit": "%"},
      {"measurement": "viability, T/C", "setting": "[4]", "value": 36.9, "unit": "%"},
      {"measurement": "viability, T/C", "setting": "[5]", "value": 39.1, "unit": "%"},
      {"measurement": "viability, T/C", "setting": "[6]", "value": 37.2, "unit": "%"},
      {"measurement": "viability, T/C", "setting": "[7]", "value": 24.8, "unit": "%"},
      {"measurement": "viability, T/C", "setting": "[8]", "value": 26.4, "unit": "%"},
      {"measurement": "viability, T/C", "setting": "[9]", "value": 26.2, "unit": "%"},
      {"measurement": "viability, T/C", "setting": "[10]", "value": 25.8, "unit": "%"},
      {"measurement": "viability, T/C", "setting": "[11]", "value": 26.1, "unit": "%"},
      {"measurement": "viability, T/C", "setting": "[12]", "value": 30.1, "unit": "%"},
      {"measurement": "viability, T/C", "setting": "[13]", "value": 21, "unit": "%"},
      {"measurement": "viability, T/C", "setting": "[14]", "value": 20.3, "unit": "%"},
      {"measurement": "viability, T/C", "setting": "[15]", "value": 21.1, "unit": "%"},
      {"measurement": "viability, T/C", "setting": "[16]", "value": 22.2, "unit": "%"},
      {"measurement": "viability, T/C", "setting": "[17]", "value": 24.3, "unit": "%"},
      {"measurement": "viability, T/C", "setting": "[18]", "value": 24.3, "unit": "%"},
      {"measurement": "viability, T/C", "setting": "[19]", "value": 20.4, "unit": "%"},
      {"measurement": "viability, T/C", "setting": "[20]", "value": 19.8, "unit": "%"},
      {"measurement": "viability, T/C", "setting": "[21]", "value": 20.8, "unit": "%"},
      {"measurement": "viability, T/C", "setting": "[22]", "value": 23.8, "unit": "%"},
      {"measurement": "viability, T/C", "setting": "[23]", "value": 24.1, "unit": "%"},
      {"measurement": "viability, T/C", "setting": "[24]", "value": 22.2, "unit": "%"},
      {"measurement": "viability, T/C", "setting": "[25]", "value": 21.3, "unit": "%"},
      {"measurement": "viability, T/C", "setting": "[26]", "value": 20.6, "unit": "%"},
      {"measurement": "viability, T/C", "setting": "[27]", "value": 21.1, "unit": "%"},
      {"measurement": "viability, T/C", "setting": "[28]", "value": 19.9, "unit": "%"},
      {"measurement": "viability, T/C", "setting": "[29]", "value": 23.1, "unit": "%"},
      {"measurement": "viability, T/C", "setting": "[30]", "value": 24.3, "unit": "%"},
      {"measurement": "viability, T/C", "setting": "[31]", "value": 19.5, "unit": "%"},
      {"measurement": "viability, T/C", "setting": "[32]", "value": 20.2, "unit": "%"},
      {"measurement": "viability, T/C", "setting": "[33]", "value": 21.4, "unit": "%"},
      {"measurement": "viability, T/C", "setting": "[34]", "value": 20.9, "unit": "%"},
      {"measurement": "viability, T/C", "setting": "[35]", "value": 22.6, "unit": "%"},
      {"measurement": "viability, T/C", "setting": "[36]", "value": 24.8, "unit": "%"}
    ]},
    {"smiles": "CCC(CC)c1cc(NC2CCC(N)C2)n2nccc2n1", "note": "(centres undefined) + CCn1c(-c2cc(N3CCN(C)CC3)cnc2C(C)OC)c2c3cc(ccc31)-c1csc(n1)CC(NC(=O)C1CC1C)C(=O)N1CCCC(N1)C(=O)OCC(C)(C)C2", "values": [
      {"measurement": "IC50", "setting": "second compound 0.000949 µM", "value": "< 31.6", "unit": "nM"},
      {"measurement": "IC50", "setting": "second compound 0.003 µM", "value": "< 31.6", "unit": "nM"},
      {"measurement": "IC50", "setting": "second compound 0.00949 µM", "value": "< 31.6", "unit": "nM"},
      {"measurement": "IC50", "setting": "second compound 0.03 µM", "value": "< 31.6", "unit": "nM"},
      {"measurement": "IC50", "setting": "second compound 0.0949 µM", "value": "< 31.6", "unit": "nM"},
      {"measurement": "IC50", "setting": "second compound 0.3 µM", "value": "< 31.6", "unit": "nM"},
      {"measurement": "viability, T/C", "setting": "[1]", "value": 36.1, "unit": "%"},
      {"measurement": "viability, T/C", "setting": "[2]", "value": 34.6, "unit": "%"},
      {"measurement": "viability, T/C", "setting": "[3]", "value": 36.9, "unit": "%"},
      {"measurement": "viability, T/C", "setting": "[4]", "value": 38.4, "unit": "%"},
      {"measurement": "viability, T/C", "setting": "[5]", "value": 15.5, "unit": "%"},
      {"measurement": "viability, T/C", "setting": "[6]", "value": 51.6, "unit": "%"},
      {"measurement": "viability, T/C", "setting": "[7]", "value": 22.1, "unit": "%"},
      {"measurement": "viability, T/C", "setting": "[8]", "value": 24.1, "unit": "%"},
      {"measurement": "viability, T/C", "setting": "[9]", "value": 24.7, "unit": "%"},
      {"measurement": "viability, T/C", "setting": "[10]", "value": 27.2, "unit": "%"},
      {"measurement": "viability, T/C", "setting": "[11]", "value": 15.2, "unit": "%"},
      {"measurement": "viability, T/C", "setting": "[12]", "value": 50.2, "unit": "%"},
      {"measurement": "viability, T/C", "setting": "[13]", "value": 23.4, "unit": "%"},
      {"measurement": "viability, T/C", "setting": "[14]", "value": 24.7, "unit": "%"},
      {"measurement": "viability, T/C", "setting": "[15]", "value": 23.6, "unit": "%"},
      {"measurement": "viability, T/C", "setting": "[16]", "value": 25.8, "unit": "%"},
      {"measurement": "viability, T/C", "setting": "[17]", "value": 17.8, "unit": "%"},
      {"measurement": "viability, T/C", "setting": "[18]", "value": 46.1, "unit": "%"},
      {"measurement": "viability, T/C", "setting": "[19]", "value": 20.7, "unit": "%"},
      {"measurement": "viability, T/C", "setting": "[20]", "value": 20.4, "unit": "%"},
      {"measurement": "viability, T/C", "setting": "[21]", "value": 24.9, "unit": "%"},
      {"measurement": "viability, T/C", "setting": "[22]", "value": 27.7, "unit": "%"},
      {"measurement": "viability, T/C", "setting": "[23]", "value": 17.4, "unit": "%"},
      {"measurement": "viability, T/C", "setting": "[24]", "value": 57.6, "unit": "%"},
      {"measurement": "viability, T/C", "setting": "[25]", "value": 21.6, "unit": "%"},
      {"measurement": "viability, T/C", "setting": "[26]", "value": 22.1, "unit": "%"},
      {"measurement": "viability, T/C", "setting": "[27]", "value": 26.9, "unit": "%"},
      {"measurement": "viability, T/C", "setting": "[28]", "value": 32.8, "unit": "%"},
      {"measurement": "viability, T/C", "setting": "[29]", "value": 18.4, "unit": "%"},
      {"measurement": "viability, T/C", "setting": "[30]", "value": 49.6, "unit": "%"},
      {"measurement": "viability, T/C", "setting": "[31]", "value": 22.4, "unit": "%"},
      {"measurement": "viability, T/C", "setting": "[32]", "value": 22.3, "unit": "%"},
      {"measurement": "viability, T/C", "setting": "[33]", "value": 25.7, "unit": "%"},
      {"measurement": "viability, T/C", "setting": "[34]", "value": 32.3, "unit": "%"},
      {"measurement": "viability, T/C", "setting": "[35]", "value": 22.3, "unit": "%"},
      {"measurement": "viability, T/C", "setting": "[36]", "value": 51.4, "unit": "%"}
    ]}
  ]
}
